Assay results: patent publication US20240246978A1, “PHENYLDIHYDROPYRIMIDINE COMPOUND AND USE THEREOF” (HEPAGENE THERAPEUTICS (HK) LIMITED, priority 2021, published 2024)
pEC50: −log10 of the molar value.

System: Hepatitis B virus (HBV)
Assay: In vitro anti-HBV activity by q-PCR assay of HBV DNA in HepG2.2.15 cell supernatant
Assay type: cell-based
Conditions: HepG2.2.15 cells; inhibition of HBV DNA copies in supernatant by qPCR; compound renewed after 3 days, 3 more days; 0.5% DMSO; read-out: EC50
Protocol: Compound preparation and cell culture: The test compounds were prepared as 20 mM storage solution using the appropriate volume of dimethyl sulfoxide (DMSO) (Sigma-D2650) according to the relative molecular weight and mass.
The growth of HepG2.2.15 cells (Wuhan Institute of Virology, Chinese Academy of Sciences) in the culture flasks were observed under a microscope, the cells were digested with trypsin (Invitrogen-25300062), and resuspended with cell culture medium (DMEM/F12, Invitrogen-11330032; containing 2% fetal bovine serum FBS, HyClone-SV30087.03, 100 U/Ml penicillin, Hyclone-SV30010, 100 μg/mL streptomycin, Hyclone-SV30010, 1% non-essential amino acids, Invitrogen-11140-050, 2 mM L-glutamine, Gibco-35050-061); the cells were counted using a Vi-Cell cell counter and the volume and concentration of cell suspension were adjusted according to the number of cell spreads and the number of cells required per well, and the cell spreading density of the 96-well cell culture plates (Costar-3599) was 60,000 cells/well, 100 μL/well; the cell plates with the cells were placed in a 5% CO2, 37° C. incubator and incubated overnight.
The experiments were set at a starting concentration of 100 μM for the test compound and 20 nM for the reference compound entecavir (ETV, WuXi AppTec), with a 3-fold gradient dilution and 9 concentration points. A 96-well V-bottom plate was used, the corresponding test compounds and reference compounds ETV were diluted to obtain 200× compound source plate; a sterile 2 mL deep-well plate was added with 297 μL of cell culture medium, 3 μL of the compounds in the 200× compound source plate were added to the corresponding deep-well plate, diluted by 100-fold, and mixed well with a pipette tip blowing to obtain a 2× compound plate, and then the plate was sealed with parafilm and then stored in a nitrogen cabinet to be used for replacement of the compounds. The cell plate laid out the day before was took and added with 100 μL of diluted 2× compound to each of the corresponding cell wells with a final concentration of 0.5% DMSO. Example of compound distribution in the cell plate is shown below*:
After the cell plates were reintroduced into a 5% CO2, 37° C. cell incubator for 3 days, the medium was removed from the cell culture plates and 100 μL of cell culture solution was replenished to each well. The 200× compound source plate configured was removed from the nitrogen cabinet, a sterile 2 mL deep-well plate was added with 297 μL of cell culture medium, 3 μL of the compounds in the 200× compound source plate was added to the corresponding deep-well plate, diluted by 100-fold, and mixed well with a pipette tip blowing to obtain a 2× compound plate. To the cell wells containing 100 μL of medium, 100 μL of diluted 2× compound was added, with a final concentration of DMSO of 0.5%; the cell plates were reintroduced into 5% CO2 and incubated in a 37° C. cell incubator for 3 days.
The 96-well cell plate was removed from the incubator, centrifuged at 3,000 rpm for 2 min with centrifuge (Beckman, Allegra-X15R), and the cell supernatant was collected for subsequent HBV DNA extraction. 50 μL of cell culture solution were added to each well in the cell plate, then 50 μL of CellTiter-Glo Detection Reagent (Promega-G7573) were added to each well, and the plate was shaken for 10 min away from light to allow the cells to be lysed; the luminescence value of each well was detected by using an enzyme labeller (BioTek Synergy 2).
HBV DNA Extraction: HBV DNA was extracted from cell supernatants using the QIAamp 96 DNA Blood Kit (Qiagen-51162) as described in the kit instructions; the volume of cell supernatant was 150 μL and the final DNA elution volume was 180 μL. […]

SMILES | pEC50
C#Cc1cc(F)ccc1[C@H]1N=C(c2nccs2)NC(CN2CCN3C(=O)N(CC(C)(C)C(=O)O)C[C@@H]3C2)=C1C(=O)OCC [SZ-023089] | > 7.30
C#Cc1cc(F)ccc1[C@H]1N=C(c2nccs2)NC(CN2[C@@H]3CC(CC(=O)O)C[C@H]2C(F)(F)C3)=C1C(=O)OCC (some centres unmarked) [SZ-023091] | > 7.30
C#Cc1cc(F)ccc1[C@@H]1N=C(c2nccs2)NC(CN2CCO[C@H](/C=C/C(=O)O)C2)=C1C(=O)OCC [SZ-023093] | > 7.30
C#Cc1cc(F)ccc1[C@H]1N=C(c2nccs2)NC(CN2CCO[C@H](CCC(=O)O)C2)=C1C(=O)OCC [SZ-023095] | > 7.30
C#Cc1cc(F)ccc1[C@@H]1N=C(c2nccs2)NC(CN2CCOCC2)=C1C(=O)OCC [SZ-023115-P1] | < 6.00
C#Cc1cc(F)ccc1[C@H]1N=C(c2nccs2)NC(CN2CCOCC2)=C1C(=O)OCC [SZ-023115-P2] | > 7.30

Same assay, conditions: Hepatitis B virus, 72 h; HepG2.2.15 cells; inhibition of HBV DNA copies in supernatant by qPCR; compound renewed after 3 days, 3 more days; 0.5% DMSO; read-out: EC50

SMILES | pEC50
C#Cc1cc(F)ccc1C1N=C(c2nccs2)NC(CN2CCN3C(=O)N(CC(C)(C)C(=O)O)C[C@@H]3C2)=C1C(=O)OCC (mixture of isomers) [SZ-023089RAC] | > 7.30
C#Cc1cc(F)ccc1C1N=C(c2nccs2)NC(CN2CCO[C@H](/C=C/C(=O)O)C2)=C1C(=O)OCC (mixture of isomers) [SZ-023093RAC] | > 7.30
C#Cc1cc(F)ccc1C1N=C(c2nccs2)NC(CN2CCO[C@H](CCC(=O)O)C2)=C1C(=O)OCC (mixture of isomers) [SZ-023095RAC] | 7.00 to 7.30
C#Cc1cc(F)ccc1C1N=C(c2nccs2)NC(CN2CCOCC2)=C1C(=O)OCC (racemic) [SZ-023115RAC] | > 7.30
CCOC(=O)C1=C(CN2CCOCC2)NC(c2nccs2)=NC1c1ccc(F)cc1C#N (racemic) [SZ-023117RAC] | 7.00 to 7.30
C#Cc1c(C2N=C(c3nccs3)NC(CN3CCN4C(=O)N(CC(C)(C)C(=O)O)C[C@@H]4C3)=C2C(=O)OCC)ccc(F)c1F (some centres unmarked) [SZ-023127] | > 7.30
C#Cc1cc(F)c(F)cc1[C@@H]1N=C(c2nccs2)NC(CN2CCN3C(=O)N(CC(C)(C)C(=O)O)C[C@@H]3C2)=C1C(=O)OCC [SZ-023129] | 6.00 to 7.00
[2H]C([2H])([2H])C([2H])([2H])OC(=O)C1=C(CN2CCN3C(=O)N(CC(C)(C)C(=O)O)C[C@@H]3C2)NC(c2nccs2)=N[C@H]1c1cccc(F)c1C#C [SZ-023133] | > 7.30
[2H]C([2H])([2H])OC(=O)C1=C(CN2CCO[C@H](/C=C/C(=O)O)C2)NC(c2nccs2)=N[C@H]1c1ccc(F)cc1C#C [SZ-023143] | > 7.30
C#Cc1cc(F)ccc1[C@@H]1N=C(c2nccs2)NC(CN2CCN3C(=O)N(CC(C)(C)C(=O)O)C[C@@H]3C2)=C1C(=O)OC [SZ-023145] | > 7.30
[2H]C([2H])([2H])OC(=O)C1=C(CN2CCN3C(=O)N(CC(C)(C)C(=O)O)C[C@@H]3C2)NC(c2nccs2)=N[C@H]1c1ccc(F)cc1C#C [SZ-023147] | > 7.30
[2H]C([2H])([2H])C([2H])([2H])OC(=O)C1=C(CN2CCN3C(=O)N(CC(C)(C)C(=O)O)C[C@@H]3C2)NC(c2nccs2)=N[C@H]1c1ccc(F)cc1C#C [SZ-023149] | > 7.30
C#Cc1cc(F)ccc1[C@@H]1N=C(c2nccs2)NC(CN2CCN3C(=O)N(CC(C)(C)C(=O)O)C[C@@H]3C2)=C1C(=O)SC [SZ-023151] | 6.00 to 7.00
C#Cc1cc(F)ccc1[C@@H]1N=C(c2nccs2)NC(CN2CCO[C@H](C3CC3C(=O)O)C2)=C1C(=O)OCC (some centres unmarked) [SZ-023342] | 7.00 to 7.30
C#Cc1cc(Cl)ccc1C1N=C(c2nccs2)NC(CN2CCN3C(=O)N(CC(C)(C)C(=O)O)C[C@@H]3C2)=C1C(=O)OCC (some centres unmarked) [SZ-023366] | > 7.30
C#Cc1cc(C)ccc1C1N=C(c2nccs2)NC(CN2CCN3C(=O)N(CC(C)(C)C(=O)O)C[C@@H]3C2)=C1C(=O)OCC (some centres unmarked) [SZ-023368] | 6.00 to 7.00
C#Cc1ccccc1C1N=C(c2nccs2)NC(CN2CCN3C(=O)N(CC(C)(C)C(=O)O)C[C@@H]3C2)=C1C(=O)OCC (some centres unmarked) [SZ-023370] | 7.00 to 7.30
C#Cc1cc(Cl)ccc1C1N=C(c2nccs2)NC(CN2CCN3C(=O)N(c4ccc(CCC(=O)O)cc4)C[C@@H]3C2)=C1C(=O)OCC (some centres unmarked) [SZ-023380] | > 7.30
C#Cc1cc(F)ccc1[C@@H]1N=C(c2nccs2)NC(CN2CCN3C(=O)N(c4ccc(CCC(=O)O)cc4)C[C@@H]3C2)=C1C(=O)OCC [SZ-023384] | > 7.30
C#Cc1c(F)cccc1[C@@H]1N=C(c2nccs2)NC(CN2CCN3C(=O)N(c4ccc(CCC(=O)O)cc4)C[C@@H]3C2)=C1C(=O)OCC [SZ-023386] | > 7.30
C#Cc1cc(F)ccc1[C@@H]1N=C(c2nccs2)NC(CN2CCN3C(=O)N(c4ccc(C(=O)O)c(F)c4)C[C@@H]3C2)=C1C(=O)OCC [SZ-023388] | > 7.30
C#Cc1c(F)cccc1[C@@H]1N=C(c2nccs2)NC(CN2CCN3C(=O)N(c4ccc(C(=O)O)c(F)c4)C[C@@H]3C2)=C1C(=O)OCC [SZ-023390] | > 7.30
C#Cc1cc(F)ccc1[C@@H]1N=C(c2nccs2)NC(CN2CCN3C(=O)N(CC(C)(C)CC(=O)O)C[C@@H]3C2)=C1C(=O)OCC [SZ-023392] | > 7.30

Same assay, conditions: Hepatitis B virus, HepG2.2.15, 72 h

SMILES | pEC50
C#Cc1cc(F)ccc1C1N=C(c2nccs2)NC(CN2[C@@H]3C[C@H](CC(=O)O)C[C@H]2C(F)(F)C3)=C1C(=O)OCC (mixture of isomers) [SZ-023091RAC] | > 7.30
C#Cc1c(F)cccc1[C@@H]1N=C(c2nccs2)NC(CN2[C@@H]3C[C@H](CC(=O)O)C[C@H]2C(F)(F)C3)=C1C(=O)OCC [SZ-023085C] | > 7.30
C#Cc1cc(F)ccc1[C@@H]1N=C(c2nccs2)NC(CN2[C@@H]3CC(CC(=O)O)C[C@H]2C(F)(F)C3)=C1C(=O)OCC (some centres unmarked) [SZ-023091C] | > 7.30
